Data set [1] has as its system A2780 (human ovarian carcinoma) cell line. The data set is described as follows: Antiproliferative activity, MTS assay, A2780. The format is cell-based. Conditions: for IC50: 48 h exposure, MTS assay; for Selectivity index (SI), A2780: IC50 fibroblasts/IC50 A2780, values with * calculated taking fibroblast IC50 as 100 μM (minimal value). The procedure: (§1) Human colorectal carcinoma cell line (HCT116), human breast cancer cell lines (MDA-MB-231 and MCF-7), and normal human primary dermal fibroblasts neonatal (PCS-201-010) cell line were grown in DMEM (Dulbecco’s modified Eagle’s medium) (Invitrogen Corp., Grand Island, NY, USA) supplemented with 10% (v/v) fetal bovine serum and 1% (v/v) antibiotic/antimycotic solution (Invitrogen Corp.). The human ovarian carcinoma (A2780) cell line was cultivated using RPMI (Roswell Park Memorial Institute) medium supplemented as in DMEM medium. The supplemented medium is named a complete medium. Cells were grown in an incubator with a humidified atmosphere at 5% (v/v) CO2 and 37 °C. All cell lines were purchased from ATCC (ATCC, American Type Culture Collection).
(§2) The evaluation of the cytotoxic potential of complexes 1–4 was obtained through in vitro measurements of the antiproliferative activity of these complexes. Cells were plated in 96-well plates at 7.5 × 10^4 cells/mL and incubated at 37 °C with 5% (v/v) CO2. After 24 h, the culture medium was replaced with fresh medium (100 μL) containing 0.1–50 μM of the different complexes and incubated for 48 h in tumor cell lines or containing 0.1–100 μM of the different complexes and incubated for 48 h in fibroblasts. […] The fibroblast cell line was used as a control of the cytotoxicity of the complexes for healthy cells. Cell viability was evaluated using Cell Titer 96 Aqueous Non-Radioactive Cell Proliferation Assay (Promega, Madison, WI, USA) using 3-(4,5-dimethylthiazol-2-yl)-5-(3-carboxymethoxyphenyl)-2-(4-sulfophenyl)-2H-tetrazolium inner salt (MTS), as described previously.[60] In metabolically active cells, enzymes present in the mitochondria catalyze a reaction in which NADPH/NADH is produced. These enzymes reduce the MTS reagent into a brownish product, Formazan, which can be quantified by measuring the absorbance at 490 nm. The quantity of formazan produced is directly proportional to the number of viable cells in the culture. This quantification was executed with a Biorad microplate reader Model 680 (Bio-Rad, Hercules, CA, USA). Half maximal inhibitory concentration (IC50) was calculated using GraphPad Prism 6 (GraphPadSoftware). We have calculated the ratio between the IC50 of fibroblasts and the IC50 of HCT116, A2780, MDA-MB-231, or MCF-7 cell lines for complexes 1–4 that was named herein as the Selectivity index (SI). To ensure the solubility of the complexes in all biological assays, complex solutions were freshly prepared and well solubilized before addition to the cells.

Data set [2] in a line: Octanol-water partition coefficient, shake-flask method. The format is physicochemical. Conditions: room temperature. The procedure:
The lipophilicity of the CoCp complexes was estimated by the shake-flask method.[54] Before the assays, n-octanol was vigorously mixed with distilled water for 24 h at room temperature to promote solvent saturation of both phases. After separating the phases, the complexes were dissolved in the n-octanol phase to obtain solutions 1.0 × 10^–5 to 2.5 × 10^–4 M. Then, each solution was equilibrated with water for 4 h in a mechanical shaker, at a phase ratio of 2 mL n-octanol:2 mL water. Afterward, the aqueous and octanol layers were carefully separated by centrifugation (5000 rpm, 10 min), and the UV–vis absorption spectra of the complexes were recorded in the n-octanol phase. For each sample, the concentration was determined by using a calibration curve in n-octanol. All experiments were performed in triplicate for each complex, being the averages used for calculation purposes. Finally, the values of the partition coefficients were calculated by resorting to the following eq (eq 1): [drawing 1] 1 where logPoct/water represents the octanol–water partition coefficient, [complex]oct represents the concentration of the complex in the n-octanol phase, and [complex]water represents the concentration of the complex in the water phase.

Another data set concerns A2780 cell line. Put plainly: Apoptosis induction, Annexin V/PI flow cytometry. The format is cell-based, human. Particulars: A2780, IC50 of each complex, 48 h. The protocol:
The induction of apoptosis was evaluated by flow cytometry in the A2780 cell line, through the Alexa Fluor Annexin V/Dead Cell Apoptosis Kit (ThermoFisher Scientific). A2780 cells were seeded at a density of 2 × 10^5 cells/well in 6-well plates and incubated for 24 h. After that time, the medium was replaced by medium mixed with complexes 2–4 at their IC50. […] After a period of 48 h of incubation, cells were washed with PBS 1× and TE was used to detach the cells. The cells were resuspended in annexin-binding buffer 1× and incubated for 15 min at RT with Alexa Fluor 488 annexin V and Propidium Iodide. All samples were analyzed by an Attune Acoustic Focusing Flow Cytometer (ThermoFisher Scientific) and respective software.

For another data set, the system named is DNA of A2780 cells. Put plainly: Single-cell gel electrophoresis (comet assay). The format is cell-based, human. Conditions: for fold increase in DNA in the tail compared to DMSO control: A2780, 10× IC50, 12 h; for % of DNA in the tail: A2780, complexes 10× IC50 for 12 h, H2O2 0.05% for 30 min at RT. The protocol:
A2780 cells were seeded in 6-well plates with a density of 1 × 10^6 cells/well and incubated for 24 h in an incubator with a humidified atmosphere at 5% (v/v) CO2 and 37 °C. […] The complexes and DMSO were incubated at 37 °C for 12 h and H2O2 for 30 min at RT. Cells were harvested with a cell scraper and solutions with 1 × 10^5 cells/mL in PBS were prepared. It was withdrawn 10 μL from the solutions and added to 90 μL of 1.5% (w/v) low melting point agarose in 1× PBS and dropped on the slides prepared previously with a coating of 1.5% (w/v) agarose (normal melting point agarose) in 1× TAE buffer. After drying at 4 °C for 15 min, the slides were dipped into lysis solution (450 mM NaCl, 3.72% EDTA, 5 mM Tris; to which 10% (v/v) DMSO and 1% (v/v) Triton-X were added just before use) for 1 h at 4 °C, followed by their being dipped for 40 min into cold electrophoresis solution (1 mM EDTA, 300 mM NaOH, pH 13). Electrophoresis was performed at 4 °C for 30 min at 25 V using a Sub-Cell model 96 apparatus (Bio-Rad). Afterward, slides were placed in 0.1 M Tris–HCl buffer (pH 7.5) at 4 °C for 15 min for neutralization, followed by 15 min in methanol at 4 °C and drying at 37 °C. For visualization of comets, slides were hydrated with distilled water at 4 °C for 30 min, stained with 20 μL of GelRed working solution (3×), and covered with new coverslips. The slides were observed under a Ti–U Eclipse inverted microscope (Nikon Instruments, Japan) and analyzed by CometScore version 2.1 (TriTek). About 100 cells per sample were analyzed. The percentage of DNA in the tail was used as a measure of the total DNA strand breakage.

For data set [3], the system named is MDA-MB-231 (human breast cancer) cell line. The data set is described as follows: Antiproliferative activity, MTS assay, MDA-MB-231. The format is cell-based. Particulars: 48 h exposure. The procedure: as §1, §2
For orientation: Formazan colour is commonly taken as a measure of viable cells.

For data set [4], the system named is HCT116 (human colorectal carcinoma) cell line. The data set is described as follows: Antiproliferative activity, MTS assay, HCT116. The data set is classed as cell-based. Conditions: for IC50: 48 h exposure, MTS assay; for Selectivity index (SI), HCT116: IC50 fibroblasts/IC50 HCT116, values with * calculated taking fibroblast IC50 as 100 μM (minimal value). The protocol: as §1, §2

A value given as a limit tells only on which side of the number the result lay.

As a reminder, the IC50 is the midpoint of a concentration-inhibition curve. Low values mean greater potency in that assay, high ones weaker potency in that assay. On to `Cc1ccnc(-c2cc(C)ccn2)c1.O=S(=O)([O-])C(F)(F)F.O=S(=O)([O-])C(F)(F)F.[Co+3].c1cc[cH-]c1.c1ccc(P(c2ccccc2)c2ccccc2)cc1` [Complex 2, [Co(η^5-C5H5)(PPh3)(Me2bipy)][(CF3SO3)2]], for which, in data set [1], the IC50 was 6.1 ± 0.1 µM and the “Selectivity index (SI), A2780” value is given as 16.4*. In addition, in data set [2], the “logP (n-octanol/water partition coefficient)” value is −0.56 ± 0.02. In the data set with A2780 cell line, the “percentage of cells in initial apoptosis” value came out at 5.0%, the “percentage of cells in late apoptosis” value came out at 0.8%, the “percentage of cells in necrosis” value turned out to be 7.8% and the total apoptosis levels worked out at 5.8%. Further, in the data set with DNA of A2780 cells, the “fold increase in DNA in the tail compared to DMSO control” value (from here on “fold increase in DNA in the tail”) worked out at 3.1 fold and the “% of DNA in the tail” value was 39.7%. In addition, the IC50 in data set [3] was > 50 µM. Moreover, in data set [4], half-maximal inhibition (IC50) required 15.3 ± 0.2 µM and the “Selectivity index (SI), HCT116” value is on record as 6.5*.

In the case of `O=S(=O)([O-])C(F)(F)F.O=S(=O)([O-])C(F)(F)F.[Co+3].c1cc[cH-]c1.c1ccc(P(c2ccccc2)c2ccccc2)cc1.c1cnc2c(c1)ccc1cccnc12` [Complex 3, [Co(η^5-C5H5)(PPh3)(phen)][(CF3SO3)2]], in data set [1], the IC50 is 6.2 ± 0.1 µM and the “Selectivity index (SI), A2780” value was 16.1*. Moreover, in data set [2], the “logP (n-octanol/water partition coefficient)” value is recorded as −0.28 ± 0.05. Further, in the data set on A2780 cell line, the “percentage of cells in initial apoptosis” value is 5.0%, the “percentage of cells in late apoptosis” value was 0.9%, the “percentage of cells in necrosis” value turned out to be 6.1% and the total apoptosis levels is recorded as 5.9%. Besides, in the data set with DNA of A2780 cells, the “fold increase in DNA in the tail” value turned out to be 3.2 fold and the “% of DNA in the tail” value is reported as 42.4%. Moreover, the IC50 in data set [3] is > 50 µM. In data set [4], the IC50 came to 13.4 ± 0.1 µM and the “Selectivity index (SI), HCT116” value is reported as 7.5*.

For the molecule `Nc1cc2cccnc2c2ncccc12.O=S(=O)([O-])C(F)(F)F.O=S(=O)([O-])C(F)(F)F.[Co+3].c1cc[cH-]c1.c1ccc(P(c2ccccc2)c2ccccc2)cc1` [Complex 4, [CoCp(PPh3)(NH2phen)][(CF3SO3)2]], in data set [1], the IC50 was found to be 4.7 ± 0.09 µM and the “Selectivity index (SI), A2780” value was 21.3*. Further, the “logP (n-octanol/water partition coefficient)” value in data set [2] is on record as −0.22 ± 0.03. For the same molecule, in the data set with A2780 cell line, the “percentage of cells in initial apoptosis” value came out at 5.6%, the “percentage of cells in late apoptosis” value is on record as 0.9%, the “percentage of cells in necrosis” value is recorded as 5.9% and the total apoptosis levels turned out to be 6.5%. Also, in the data set on DNA of A2780 cells, the “fold increase in DNA in the tail” value is recorded as 4.4 fold and the “% of DNA in the tail” value is on record as 56.4%. Also, the IC50 in data set [3] was > 50 µM. For the same molecule, in data set [4], the IC50 came to 14.1 ± 0.2 µM and the “Selectivity index (SI), HCT116” value is on record as 7.1*.

The values above are taken from PMC10988555, “Exploiting Co(III)-Cyclopentadienyl Complexes To Develop Anticancer Agents” (Inorganic Chemistry, 2024).
